Data from PMC7914897, “Cytotoxic Potential of a-Azepano- and 3-Amino-3,4-SeCo-Triterpenoids” (International Journal of Molecular Sciences, 2021).
Like-named read-outs stand apart in the source and are kept apart here.

Key:
UACC-62 (Melanoma) = assay: NCI-60 screen (SRB, 48 h); settings: Homo sapiens
ACHN (Renal cancer) = assay: NCI-60 screen (SRB, 48 h)
OVCAR-4 (Ovarian cancer) = assay: NCI-60 screen (SRB, 48 h); type: cell-based; settings: Homo sapiens
OVCAR-8 (Ovarian cancer) = assay: NCI-60 screen (SRB, 48 h); settings: Homo sapiens
HOP-62 (NSC lung cancer) = assay: NCI-60 screen (SRB, 48 h); settings: Homo sapiens
HCT-116 (Colon cancer) = assay: NCI-60 screen (SRB, 48 h); settings: Homo sapiens
PC-3 (Prostate cancer) = assay: NCI-60 screen (SRB, 48 h); settings: Homo sapiens
[1] = system: NCI/ADR-RES (Ovarian cancer); assay: NCI-60 screen (SRB, 48 h); settings: Homo sapiens
[2] = system: MDA-MB-31/ATCC (Breast cancer); assay: NCI-60 screen (SRB, 48 h); settings: Homo sapiens
SK-OV-3 (Ovarian cancer) = assay: NCI-60 screen (SRB, 48 h); settings: Homo sapiens
EKVX (NSC lung cancer) = assay: NCI-60 screen (SRB, 48 h); settings: Homo sapiens
A498 (Renal cancer) = assay: NCI-60 screen (SRB, 48 h); settings: Homo sapiens
SNB-75 (CNS cancer) = assay: NCI-60 screen (SRB, 48 h)
786-0 (Renal cancer) = assay: NCI-60 screen (SRB, 48 h); settings: Homo sapiens
[3] = system: panel of approximately 60 cancer cell lines; assay: NCI-60 screen (SRB, 48 h), full panel
Renal Cancer subpanel = assay: NCI-60 screen, subpanel; settings: Homo sapiens
SN12C (Renal cancer) = assay: NCI-60 screen (SRB, 48 h); settings: Homo sapiens
Colon Cancer subpanel = assay: NCI-60 screen, subpanel; settings: Homo sapiens
[4] = system: NIH 3T3 (non-malignant mouse fibroblasts); assay: SRB cytotoxicity assay, 72 h; type: cell-based; settings: Mus musculus, NIH3T3; NIH 3T3, 72 h, cut-off 30 µM; read-out: EC50
Summary of the method: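 Absorbance at 570 nm of SRB-stained cells gives % survival vs untreated controls, from which EC50 is determined. Treatment: 0–30 µM serial dilutions, 72 h, beginning 24 h post-seeding; DMSO ≤0.5%. TCA (10%) fixation, acetic acid wash.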

[5] = system: NCI-H322M (NSC lung cancer); assay: NCI-60 screen (SRB, 48 h)
[6] = system: MDA-MB-468 (Breast cancer); assay: cells; settings: Homo sapiens
BT-549 (Breast cancer) = assay: NCI-60 screen (SRB, 48 h); type: cell-based; settings: Homo sapiens
[7] = Homo sapiens, 48 h, read-out: TGI

CC1(C)NCCC[C@]2(C)[C@H]3C=CC4=C5C[C@@](C)(CO)CC[C@]5(C)CC[C@@]4(C)[C@]3(C)CC[C@@H]12 [Compound 6, azepano-glycyrrhetol-diene]
GI50 (UACC-62 (Melanoma); UACC-62): 3.13 µM | IC (TGI) (UACC-62 (Melanoma); UACC-62, 48 h, read-out: TGI): 10.9 µM | CC50 (UACC-62 (Melanoma); UACC-62, read-out: LC50): 37 µM | Growth % of the Most Sensitive Cell Lines (ACHN (Renal cancer); 1 dose 10 µM): −95.35% | GI50 (ACHN (Renal cancer); Homo sapiens): 2.93 µM | IC (TGI) (ACHN (Renal cancer); [7]): 9.56 µM | CC50 (ACHN (Renal cancer); Homo sapiens, read-out: LC50): 33 µM | IC (TGI) (OVCAR-4 (Ovarian cancer); OVCAR-4, 48 h): 20.8 µM | GI50 (OVCAR-4 (Ovarian cancer); OVCAR-4, read-out: GI50): 5.63 µM | CC50 (OVCAR-4 (Ovarian cancer); OVCAR-4, read-out: LC50 (the source's name)): 63.1 µM | GI50 (OVCAR-8 (Ovarian cancer); OVCAR-8): 2.55 µM | IC (TGI) (OVCAR-8 (Ovarian cancer); OVCAR-8, 48 h, read-out: TGI): 6.66 µM | CC50 (OVCAR-8 (Ovarian cancer); OVCAR-8, read-out: LC50): 30.8 µM | GI50 (HOP-62 (NSC lung cancer); HOP-62): 2.3 µM | IC (TGI) (HOP-62 (NSC lung cancer); HOP-62, 48 h, read-out: TGI): 5.16 µM | CC50 (HOP-62 (NSC lung cancer); HOP-62, read-out: LC50): 16.7 µM | GI50 (HCT-116 (Colon cancer); HCT-116): 2.73 µM | IC (TGI) (HCT-116 (Colon cancer); HCT-116, 48 h, read-out: TGI): 10.6 µM | CC50 (HCT-116 (Colon cancer); HCT-116, read-out: LC50): 52.9 µM | GI50 (PC-3 (Prostate cancer); PC-3): 3.05 µM | IC (TGI) (PC-3 (Prostate cancer); PC-3, 48 h, read-out: TGI): 12.3 µM | CC50 (PC-3 (Prostate cancer); PC-3, read-out: LC50): 38.7 µM | GI50 [1]: 2.02 µM | IC (TGI) ([1]; 48 h, read-out: TGI): 4.52 µM | CC50 ([1]; read-out: LC50): 10.4 µM | GI50 [2]: 14.5 µM | IC (TGI) ([2]; 48 h, read-out: TGI): 29.3 µM | CC50 ([2]; read-out: LC50): 59.2 µM | GI50 (SK-OV-3 (Ovarian cancer); SK-OV-3): 14.5 µM | IC (TGI) (SK-OV-3 (Ovarian cancer); SK-OV-3, 48 h, read-out: TGI): 28.6 µM | CC50 (SK-OV-3 (Ovarian cancer); SK-OV-3, read-out: LC50): 56.2 µM | GI50 (EKVX (NSC lung cancer)): 2.77 µM | IC (TGI) (EKVX (NSC lung cancer); 48 h, read-out: TGI): 8.27 µM | CC50 (EKVX (NSC lung cancer); read-out: LC50): 38.4 µM | GI50 (A498 (Renal cancer); A498): 11.4 µM | IC (TGI) (A498 (Renal cancer); A498, 48 h, read-out: TGI): 24.5 µM | CC50 (A498 (Renal cancer); A498, read-out: LC50): 52.7 µM | GI50 (SNB-75 (CNS cancer); Homo sapiens, SNB-75): 3.43 µM | IC (TGI) (SNB-75 (CNS cancer); Homo sapiens, SNB-75, 48 h, read-out: TGI): 14.8 µM | CC50 (SNB-75 (CNS cancer); Homo sapiens, SNB-75, read-out: LC50): 46.5 µM | Growth % of the Most Sensitive Cell Lines (SNB-75 (CNS cancer); SNB-75, 1 dose 10 µM): −97.70% | GI50 (786-0 (Renal cancer); 786-0): 2.66 µM | IC (TGI) (786-0 (Renal cancer); 786-0, 48 h, read-out: TGI): 8.59 µM | CC50 (786-0 (Renal cancer); 786-0, read-out: LC50): 40.9 µM | Positive Cytotoxic Effect (cell lines with percent growth < 0 / total) ([3]; 1 dose 10 µM): 59/59 | number of cancer cell lines the compound was active against ([3]; 1 dose 10 µM): pronounced antiproliferative effect against the whole NCI-60 cancer cell line panel | activity at 10 µM ([3]; Homo sapiens, 48 h, read-out: Mean Growth, %): -77.2% | activity at 10 µM ([3]; Homo sapiens, 48 h, read-out: Range of Growth, %): -99.7 to -5.08% | IC (TGI) ([3]; Homo sapiens, 48 h, read-out: TGI MG_MID60, average over all cell lines): 13.2 µM | GI50 ([3]; Homo sapiens, read-out: GI50 MG_MID60): 4.21 µM | GI50 ([3]; Homo sapiens, read-out: GI50 against all human tumor cell lines): < 15 µM | CC50 ([3]; Homo sapiens, read-out: LC50 MG_MID60, average over all cell lines): 41.9 µM | IC (TGI) (Renal Cancer subpanel; 48 h, read-out: TGI MG_MID): 11.9 µM | GI50 (Renal Cancer subpanel; read-out: GI50 MG_MID): 4.01 µM | CC50 (Renal Cancer subpanel; read-out: LC50 MG_MID): 35.8 µM | GI50 (SN12C (Renal cancer)): 3.34 µM | IC (TGI) (SN12C (Renal cancer); 48 h, read-out: TGI): 12 µM | CC50 (SN12C (Renal cancer); read-out: LC50): 41.7 µM | IC (TGI) (Colon Cancer subpanel; 48 h, read-out: TGI MG_MID): 16.7 µM | GI50 (Colon Cancer subpanel; read-out: GI50 MG_MID): 5.11 µM | CC50 (Colon Cancer subpanel; read-out: LC50 MG_MID): 48.2 µM | EC50 [4]: 11.7 ± 1.4 µM | Growth % of the Most Sensitive Cell Lines ([5]; 1 dose 10 µM): −99.73% | GI50 ([5]; Homo sapiens): 4.78 µM | IC (TGI) [5, 7]: 16.9 µM | CC50 ([5]; Homo sapiens, read-out: LC50): 42.1 µM | GI50 ([6]; MDA-MB-468): 10.4 µM | IC (TGI) ([6]; MDA-MB-468, 48 h, read-out: TGI): 24 µM | CC50 ([6]; MDA-MB-468, read-out: LC50): 55.1 µM | GI50 (BT-549 (Breast cancer); BT-549): 3.46 µM | IC (TGI) (BT-549 (Breast cancer); BT-549, 48 h): 12.7 µM | CC50 (BT-549 (Breast cancer); BT-549, read-out: LC50 (the source's name)): 39 µM
